Results as given in patent publication US7572444B2, “Binding proteins specific for human matriptase” (Amgen Fremont Inc., priority 2004, dated 2009).

Experiments:
[1] = molecular target: T1, catalytic domain of Matriptase (Homo sapiens, UniProt Q9Y5Y6); assay: Enzymatic assay with tripeptide QAR-MCA substrate (Tripeptide-MCA assay); type: biochemical; conditions: at the concentration that inhibits the unknown protease
T1 sequence (Q9Y5Y6 615-855): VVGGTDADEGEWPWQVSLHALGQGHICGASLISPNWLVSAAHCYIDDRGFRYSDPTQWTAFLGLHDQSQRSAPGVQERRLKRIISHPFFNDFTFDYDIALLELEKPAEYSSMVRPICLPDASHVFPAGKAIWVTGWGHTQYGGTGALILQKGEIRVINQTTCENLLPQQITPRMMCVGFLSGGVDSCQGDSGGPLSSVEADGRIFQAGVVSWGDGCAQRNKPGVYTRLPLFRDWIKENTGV
Description: All 972 wells were then analyzed in an enzymatic assay using the catalytic domain of Matriptase and the tripeptide QAR-MCA (Peptides International Inc., Louisville, Ky.) as substrate. The cleavage of the QAR-MCA substrate by Matriptase causes the release of a methylcoumarin amide group (MCA) as amino-methyl coumarin (AMC). The free AMC can then be detected using a fluorescent reader as a measure of Matriptase activity.
(§1) The development of the assay method was complicated by the finding that an unknown protease was present in the B cell culture supernatant that was able to cleave the QAR-MCA substrate. […] This was advantageous as the background cleavage would no longer affect the ability to identify neutralizing antibodies against Matriptase. The supernatant also contained an unknown Matriptase inhibitor that necessitated a relatively high Matriptase concentration in the assay.
The wells were determined to be positive based on their ability to inhibit Matriptase activity in two assays compared with average of the irrelevant control wells (enzyme, substrate and B cell culture supernatant) shown below. The data is shown as a percentage of the average of the negative control wells (enzyme and substrate) as in Table 3.

[2] = test system: unknown protease present in the B cell culture supernatant; assay: QAR-MCA cleavage by unknown protease of B cell culture supernatant; type: biochemical; conditions: QAR-MCA substrate
Description: as §1

[3] = test system: Ramos tumor-bearing SCID mice; assay: Ramos hind-limb paralysis model; type: in vivo; conditions: 5 mg/kg, d1, i.p., 1×10^6 Ramos cells i.v.
Description: The ability of sc95/96 to modulate the invasive and/or metastatic properties of Ramos cells was evaluated in a rodent hind-limb paralysis model. Without therapeutic intervention, SCID mice inoculated systemically with Ramos B lymphoma cells develop hind limb paralysis at ˜25 days post injection, presumably related to the accumulation of tumor cells in the spinal cord and/or brain tissues (dijoseph et al., 2004, Clinical Cancer Research 10: 8620-8629).
In this experiment, 7-8 week old C.B-17 SCID male mice were inoculated with 1×10^6 Ramos cells via tail vein injection. […] Groups 1-3 thereafter received weekly 25 mg/kg injections of antibody or an equivalent volume of PBS. Animals were given food and water ad libidum and monitored daily for signs of paralysis. Individual mice were euthanized when unable to move due to hind limb paralysis.

[4] = test system: Ramos cells; assay: CDC assay; type: cell-based; conditions: 10, 5, 2.5 and 1.25 μg/mL, 25% human sera, 1 hour; sc95/96 as IgG1 or IgG2
Description: In this experiment, 100,000 Ramos cells in 25 μL of media were added to the bottom of a 96-well plate. […] Each sample point was run in quadruplicate. After 10 minutes at room temperature, 50 μL of 50% human sera (25% final concentration) was added to the cells and incubated at 37 degrees Celsius for 1 hour. CellTiterGlo reagent (100 μL) was added to each well and allowed to incubate on the cells for 10 minutes.

[5] = test system: Raji cells; assay: ADCC assay; type: cell-based, human; conditions: 0.0001 to 1 μg/ml, NK effector cells, 4 hours
Description: Raji cells were used as target cells for the ADCC assay. To prepare the target cells, Raji cells were harvested and resuspended in media at 1.0×10^6 cells/ml. Calcein (Sigma C1359) was then added to a final concentration of 10 μM, and the cells were incubated for 45-60 minutes at 37° C., after which the Raji cells were pelleted by centrifugation at 1200 rpm for 10 minutes. The supernatant was discarded and the cells were resuspended in growth media. The centrifugation step was repeated, the cells were resuspended at a concentration of 1.0×10^4 cells in 75μL media and were then plated at 1.0×10^4 cells per well in a round bottom plate. […] The cells and antibody were incubated for 30 minutes at room temperature.
The effector cells for the ADCC assay were prepared as follows. […] The cells were counted to determine the concentration of natural killer (NK) cells, diluted to a concentration of 9.0×10^4 cells per 75 μL, and then 75 μL of these cells were then added to the Raji cells from the step above and then incubated for 4 hours at 37° C. The plate was then centrifuged at 1200 rpm for 5 minutes, and 100 μL of the supernatant was transferred to a flat, black clear-bottom 96 well plate and subsequently read on a Victor plate reader using a 490 nm excitation and 530 nm emission wavelength.

| Compound | effect on activity of Matriptase [1] | inhibition of activity of the unknown protease [2] | Median survival time [3] | CDC on Ramos cells [4] | Raji cell lysis by ADCC [5] |
| --- | --- | --- | --- | --- | --- |
| O=S(=O)(F)Cc1ccccc1 [PMSF, phenylmethyl sulfonyl fluoride] | without affecting the activity of Matriptase | completely inhibit |  |  |  |
| Rituximab [reference compound] |  |  | greater than 45 days | did demonstrate CDC activity | induce Raji cell lysis by ADCC |
